Results reported in US20260274892A1, “MACROCYCLIC BROAD SPECTRUM ANTIBIOTICS” (RQx Pharmaceuticals, Inc., priority 2017, published 2026).

Legend:
[1] = system: Methicillin Resistant Staphylococcus aureus strain USA 200; experiment: Minimum inhibitory concentration (MIC), CLSI broth micro-dilution, S. aureus; assay type: cell-based; conditions: Staphylococcus aureus, MRSA / USA200; Table 6; MRSA USA 200; cation adjusted Mueller Hinton Broth + 0.002% Tween-80; 35° C., 22 hours
Outline: (§1)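 Colonies grown 20 h at 35° C on Trypticase Soy agar (MRSA) or Luria agar (E. coli) were suspended in cation-adjusted Mueller Hinton broth with 0.002% Tween-80. Suspensions were added at OD600 0.0005 to 10-point twofold compound dilutions, then incubated 22 h at 35° C.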

[2] = system: Escherichia coli ATCC 25922; experiment: Minimum inhibitory concentration (MIC), CLSI broth micro-dilution, E. coli; assay type: cell-based; conditions: Escherichia coli, ATCC25922, 22 h, Table 6, cation adjusted Mueller Hinton Broth + 0.002% Tween-80, 35° C.
Outline: as §1

Compound	MIC [1] [µM]	MIC [2] [µM]
Cc1nc(-c2cccc(C(C)(C)C)c2)ncc1C(=O)N[C@@H](CCN)C(=O)N(C)[C@@H]1C(=O)N[C@@H](C)C(=O)N[C@H](C(=O)NCC#N)Cc2ccc(OCCN)c(c2)-c2cc1ccc2OCCN (racemic) [Compound 237, rac-(8S,11S,14S)-3,18-bis(2-aminoethoxy)-N-(cyanomethyl)-11-methyl-14-[methyl-[rac-(2S)-4-amino-2-[[2-(3-tert-butylphenyl)-4-methyl-pyrimidine-5-carbonyl]amino]butanoyl]amino]-10,13-dioxo-9,12-diazatricyclo[13.3.1.12,6]icosa-1(18),2(20),3,5,15(19),16-hexaene-8-carboxamide]	0.0083	0.27
Cc1nc(-c2ccc(OC3CCCCC3)cc2)nc(C)c1C(=O)N[C@@H](CCN)C(=O)N(C)[C@@H]1C(=O)N[C@@H](C)C(=O)N[C@H](C(=O)NCC#N)Cc2ccc(OCCN)c(c2)-c2cc1ccc2OCCN (racemic) [Compound 337, rac-(8S,11S,14S)-3,18-bis(2-aminoethoxy)-N-(cyanomethyl)-11-methyl-14-[methyl-[rac-(2S)-4-amino-2-[[2-[4-(cyclohexoxy)phenyl]-4,6-dimethyl-pyrimidine-5-carbonyl]amino]butanoyl]amino]-10,13-dioxo-9,12-diazatricyclo[13.3.1.12,6]icosa-1(18),2(20),3,5,15(19),16-hexaene-8-carboxamide]	0.012	0.11
CNc1cc(C(=O)N[C@@H](CCN)C(=O)N(C)[C@@H]2C(=O)N[C@@H](C)C(=O)N[C@H](C(=O)NCC#N)Cc3ccc(OCCN)c(c3)-c3cc2ccc3OCCN)c(C)nc1-c1ccc(C(C)(C)C)cc1 (racemic) [Compound 409, rac-(8S,11S,14S)-3,18-bis(2-aminoethoxy)-N-(cyanomethyl)-11-methyl-14-[methyl-[rac-(2S)-4-amino-2-[[6-(4-tert-butylphenyl)-2-methyl-5-(methylamino)pyridine-3-carbonyl]amino]butanoyl]amino]-10,13-dioxo-9,12-diazatricyclo[13.3.1.12,6]icosa-1(18),2(20),3,5,15(19),16-hexaene-8-carboxamide]	0.13	0.75
Cc1nc(-c2ccc(CC(C)C)cc2)ccc1C(=O)N[C@@H](CCN)C(=O)N(C)[C@@H]1C(=O)N[C@@H](C)C(=O)N[C@H](C(=O)NCC#N)Cc2ccc(O)c(c2)-c2cc1ccc2O (racemic) [Compound 430, rac-(8S,11S,14S)-N-(cyanomethyl)-3,18-dihydroxy-11-methyl-14-[methyl-[rac-(2S)-4-amino-2-[[6-(4-isobutylphenyl)-2-methyl-pyridine-3-carbonyl]amino]butanoyl]amino]-10,13-dioxo-9,12-diazatricyclo[13.3.1.12,6]icosa-1(18),2(20),3,5,15(19),16-hexaene-8-carboxamide]	0.15	4.7
Cc1nc(-c2ccc3c(c2)CCC(C)(C)O3)ncc1C(=O)N[C@@H](CCN)C(=O)N(C)[C@@H]1C(=O)N[C@@H](C)C(=O)N[C@H](C(=O)NCC#N)Cc2ccc(OCCN)c(c2)-c2cc1ccc2OCCN (racemic) [Compound 249, rac-(8S,11S,14S)-3,18-bis(2-aminoethoxy)-N-(cyanomethyl)-11-methyl-14-[methyl-[rac-(2S)-4-amino-2-[[2-(2,2-dimethylchroman-6-yl)-4-methyl-pyrimidine-5-carbonyl]amino]butanoyl]amino]-10,13-dioxo-9,12-diazatricyclo[13.3.1.12,6]icosa-1(18),2(20),3,5,15(19),16-hexaene-8-carboxamide]	0.043	0.35
CCCC(CCC)Oc1ccc(-c2nc(C)c(C(=O)N[C@@H](CCN)C(=O)N(C)[C@@H]3C(=O)N[C@@H](C)C(=O)N[C@H](C(=O)NCC#N)Cc4ccc(OCCN)c(c4)-c4cc3ccc4OCCN)c(C)n2)cc1 (racemic) [Compound 341, rac-(8S,11S,14S)-3,18-bis(2-aminoethoxy)-N-(cyanomethyl)-11-methyl-14-[methyl-[rac-(2S)-4-amino-2-[[4,6-dimethyl-2-[4-(1-propylbutoxy)phenyl]pyrimidine-5-carbonyl]amino]butanoyl]amino]-10,13-dioxo-9,12-diazatricyclo[13.3.1.12,6]icosa-1(18),2(20),3,5,15(19),16-hexaene-8-carboxamide]	0.016	0.13
Cc1nc(-c2ccc(C3CCC3)cc2)nc(C)c1C(=O)N[C@@H](CCN)C(=O)N(C)[C@@H]1C(=O)N[C@@H](C)C(=O)N[C@H](C(=O)NCC#N)Cc2ccc(OCCN)c(c2)-c2cc1ccc2OCCN (racemic) [Compound 301, rac-(8S,11S,14S)-3,18-bis(2-aminoethoxy)-N-(cyanomethyl)-11-methyl-14-[methyl-[rac-(2S)-4-amino-2-[[2-(4-cyclobutylphenyl)-4,6-dimethyl-pyrimidine-5-carbonyl]amino]butanoyl]amino]-10,13-dioxo-9,12-diazatricyclo[13.3.1.12,6]icosa-1(18),2(20),3,5,15(19),16-hexaene-8-carboxamide]	0.016	0.094
Cc1cc(C(=O)N[C@@H](CCN)C(=O)N(C)[C@@H]2C(=O)N[C@@H](C)C(=O)N[C@H](C(=O)NCC#N)Cc3ccc(OCCN)c(c3)-c3cc2ccc3OCCN)c(C)nc1-c1ccc(C(C)(C)C)cc1 (racemic) [Compound 402, rac-(8S,11S,14S)-3,18-bis(2-aminoethoxy)-N-(cyanomethyl)-11-methyl-14-[methyl-[rac-(2S)-4-amino-2-[[6-(4-tert-butylphenyl)-2,5-dimethyl-pyridine-3-carbonyl]amino]butanoyl]amino]-10,13-dioxo-9,12-diazatricyclo[13.3.1.12,6]icosa-1(18),2(20),3,5,15(19),16-hexaene-8-carboxamide]	0.031	0.38
COc1ccc2cc1-c1cc(ccc1OCCN)C[C@@H](C(=O)NCC#N)NC(=O)[C@H](C)NC(=O)[C@H]2N(C)C(=O)[C@H](CCN)NC(=O)c1cnc(-c2ccc(C(C)(C)C)cc2)nc1C (racemic) [Compound 558, rac-(8S,11S,14S)-3-(2-aminoethoxy)-N-(cyanomethyl)-18-methoxy-11-methyl-14-[methyl-[rac-(2S)-4-amino-2-[[2-(4-tert-butylphenyl)-4-methyl-pyrimidine-5-carbonyl]amino]butanoyl]amino]-10,13-dioxo-9,12-diazatricyclo[13.3.1.12,6]icosa-1(18),2(20),3,5,15(19),16-hexaene-8-carboxamide]	0.046	0.73
CCCCOc1c(C)cc(-c2ncc(C(=O)N[C@@H](CCN)C(=O)N(C)[C@@H]3C(=O)N[C@@H](C)C(=O)N[C@H](C(=O)NCC#N)Cc4ccc(OCCN)c(c4)-c4cc3ccc4OCCN)c(C)n2)cc1C (racemic) [Compound 243, rac-(8S,11S,14S)-3,18-bis(2-aminoethoxy)-N-(cyanomethyl)-11-methyl-14-[methyl-[rac-(2S)-4-amino-2-[[2-(4-butoxy-3,5-dimethyl-phenyl)-4-methyl-pyrimidine-5-carbonyl]amino]butanoyl]amino]-10,13-dioxo-9,12-diazatricyclo[13.3.1.12,6]icosa-1(18),2(20),3,5,15(19),16-hexaene-8-carboxamide]	0.008	0.13
Cc1nc(C2=CCC(C(C)(C)C)CC2)nc(C)c1C(=O)N[C@@H](CCN)C(=O)N(C)[C@@H]1C(=O)N[C@@H](C)C(=O)N[C@H](C(=O)NCC#N)Cc2ccc(OCCN)c(c2)-c2cc1ccc2OCCN (mixture of isomers) [Compound 295, rac-(8S,11S,14S)-3,18-bis(2-aminoethoxy)-N-(cyanomethyl)-11-methyl-14-[methyl-[rac-(2S)-4-amino-2-[[2-(4-tert-butylcyclohexen-1-yl)-4,6-dimethyl-pyrimidine-5-carbonyl]amino]butanoyl]amino]-10,13-dioxo-9,12-diazatricyclo[13.3.1.12,6]icosa-1(18),2(20),3,5,15(19),16-hexaene-8-carboxamide]	0.0078	0.063
Cc1nc(-c2ccc(C(C)(C)C)cc2)ccc1C(=O)N[C@@H](CCN)C(=O)N(C)[C@@H]1C(=O)N[C@@H](C)C(=O)N[C@H](C(=O)NCC#N)Cc2ccc(OCCN)c(c2)-c2cc1ccc2OCCN (racemic) [Compound 206, rac-(8S,11S,14S)-3,18-bis(2-aminoethoxy)-N-(cyanomethyl)-11-methyl-14-[methyl-[rac-(2S)-4-amino-2-[[6-(4-tert-butylphenyl)-2-methyl-pyridine-3-carbonyl]amino]butanoyl]amino]-10,13-dioxo-9,12-diazatricyclo[13.3.1.12,6]icosa-1(18),2(20),3,5,15(19),16-hexaene-8-carboxamide]	0.025	0.13
CCCCCOc1ccc(-c2nc(C)c(C(=O)N[C@@H](CCN)C(=O)N(C)[C@@H]3C(=O)N[C@@H](C)C(=O)N[C@H](C(=O)NCC#N)Cc4ccc(OCCN)c(c4)-c4cc3ccc4OCCN)c(C)n2)cc1 (racemic) [Compound 328, rac-(8S,11S,14S)-3,18-bis(2-aminoethoxy)-N-(cyanomethyl)-11-methyl-14-[methyl-[rac-(2S)-4-amino-2-[[4,6-dimethyl-2-(4-pentoxyphenyl)pyrimidine-5-carbonyl]amino]butanoyl]amino]-10,13-dioxo-9,12-diazatricyclo[13.3.1.12,6]icosa-1(18),2(20),3,5,15(19),16-hexaene-8-carboxamide]	0.0093	0.07
CCCCCCCCc1ccc(C(=O)N[C@@H](CC(=O)NC)C(=O)N(C)[C@@H]2C(=O)N[C@@H](C)C(=O)N[C@H](C(=O)NCC#N)Cc3ccc(OCCN)c(c3)-c3cc2ccc3OCCN)c(C)c1 (racemic) [Compound 443, rac-(2S)-N,N′-dimethyl-2-[(2-methyl-4-octyl-benzoyl)amino]-N-[rac-(7S,10S,13S)-3,18-bis(2-aminoethoxy)-13-(cyanomethylcarbamoyl)-10-methyl-8,11-dioxo-9,12-diazatricyclo[13.3.1.12,6]icosa-1(19),2,4,6(20),15,17-hexaen-7-yl]butanediamide]	0.27	4.2
